Assay results from patent publication US8153807B2, “Inhibitors of 11-beta-hydroxysteroid dehydrogenase 1” (Eli Lilly and Company, priority 2006, dated 2012).

What was measured:
cortisone conversion = experiment: Acute in vivo cortisone conversion assay; conditions: Mus musculus; male C57BL/6 mice, oral dose 10 mg/kg, cortisone challenge 16 hours post dose, serum cortisol; read-out: % Inhibition after 16 hours (dose of 10 (mg/kg))
Method: Acute In Vivo Cortisone Conversion Assay
In general, compounds are dosed orally into mice, the mice are challenged with a subcutaneous injection of cortisone at a set timepoint after compound injection, and the blood of each animal is collected some time later. Separated serum is then isolated and analyzed for levels of cortisone and cortisol by LC-MS/MS, followed by calculation of mean cortisol and percent inhibition of each dosing group. Specifically, male C57BL/6 mice are obtained from Harlan Sprague Dawley at average weight of 25 grams. Exact weights are taken upon arrival and the mice randomized into groups of similar weights. Compounds are prepared in 1% w-w HEC, 0.25% w-w polysorbate 80, 0.05% w-w Dow Corning antifoam #1510-US at various doses based on assumed average weight of 25 grams. Compounds are dosed orally, 200 μl per animal, followed by a subcutaneous dose, 200 μl per animal, of 30 mg/kg cortisone at 1 to 24 hours post compound dose. At 10 minutes post cortisone challenge, each animal is euthanized for 1 minute in a CO2 chamber, followed by blood collection via cardiac puncture into serum separator tubes. Once fully clotted, tubes are spun at 2500×g, 4° C. for 15 minutes, the serum transferred to wells of 96-well plates (Corning Inc, Costar #4410, cluster tubes, 1.2 ml, polypropylene), and the plates are frozen at −20° C. until analysis by LC-MS/MS. For analysis, serum samples are thawed and the proteins are precipitated by the addition of acetonitrile containing d4-cortisol internal standard. Samples are vortex mixed and centrifuged. The supernatant is removed and dried under a stream of warm nitrogen. Extracts are reconstituted in methanol/water (1:1) and injected onto the LC-MS/MS system. The levels of cortisone and cortisol are assayed by selective reaction monitoring mode following positive ACPI ionization on a triple quadrupole mass spectrophotometer.

11-β-HSD1 = target: T1, 11-β-HSD1 (Homo sapiens, UniProt P28845); experiment: Human aortic smooth muscle cell assay; format: cell-based; conditions: primary human AoSMC, hTNFα-induced 11-β-HSD1, cortisol immunoassay
T1 construct: assay medium containing 12 ng/mL hTNFα to induce expression of 11-β-HSD1; endogenous in cells; host or cells: primary human aortic smooth muscle cells (AoSMC), induced with hTNFα
Method: Human Aortic Smooth Muscle Cell Assay
Primary human aortic smooth muscle cells (AoSMC) are cultured in 5% FBS growth medium to a passage number of 6, then pelleted by centrifugation and resuspended at a density of 9×10^4 cells/mL in 0.5% FBS assay medium containing 12 ng/mL hTNFα to induce expression of 11-β-HSD1. Cells are seeded into 96-well tissue culture assay plates at 100 μL/well (9×10^3 cells/well) and incubated for 48 hours at 37° C., 5% CO2. Following induction, cells are incubated for 4 hours at 37° C., 5% CO2 in assay medium containing test compounds then treated with 10 μL/well of 10 μM cortisone solubilized in assay medium, and incubated for 16 hours at 37° C., 5% CO2. Medium from each well is transferred to a plate for subsequent analysis of cortisol using a competitive fluorescence resonance time resolved immunoassay. In solution, an allophycocyanin (APC)-cortisol conjugate and free cortisol analyte compete for binding to a mouse anti-cortisol antibody/Europium (Eu)-anti mouse IgG complex. Higher levels of free cortisol result in diminishing energy transfer from the Europium-IgG to the APC-cortisol complex resulting in less APC fluorescence. Fluorescent intensities for Europium and APC are measured using a LJL Analyst AD. Europium and APC excitation is measured using 360 nm excitation and 615 nm and 650 nm emission filters respectively. Time resolved parameters for Europuium were 1000 μs integration time with a 200 μs delay. APC parameters are set at 150 μs integration time with a 50 μs delay. Fluorescent intensities measured for APC are modified by dividing by the Eu fluorescence (APC/Eu). This ratio is then used to determine the unknown cortisol concentration by interpolation using a cortisol standard curve fitted with a 4-parameter logistic equation. These concentrations are then used to determine compound activity by plotting concentration versus % inhibition, fitting with a 4-parameter curve and reporting the IC50.

11-βHSD2 enzyme = target: T2, 11-βHSD2 enzyme (Homo sapiens, UniProt P80365); experiment: Selectivity against 11-βHSD2 in an enzyme assay similar to the 11β-HSD type 1 enzyme assay; format: biochemical; conditions: 11-βHSD1 versus 11-βHSD2 enzyme
T2 sequence (P80365 1-405): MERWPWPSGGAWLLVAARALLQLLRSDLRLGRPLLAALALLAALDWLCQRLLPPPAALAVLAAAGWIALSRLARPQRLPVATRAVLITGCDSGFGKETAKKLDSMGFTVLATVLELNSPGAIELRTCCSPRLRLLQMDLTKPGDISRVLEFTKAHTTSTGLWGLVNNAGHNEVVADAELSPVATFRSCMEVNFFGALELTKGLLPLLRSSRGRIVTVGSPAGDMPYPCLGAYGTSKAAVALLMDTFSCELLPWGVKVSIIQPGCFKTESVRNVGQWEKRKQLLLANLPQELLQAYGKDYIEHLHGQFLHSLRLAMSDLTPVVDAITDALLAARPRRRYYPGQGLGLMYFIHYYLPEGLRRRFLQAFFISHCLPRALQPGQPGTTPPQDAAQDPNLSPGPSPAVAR
Method: 11β-HSD Type 1 Enzyme Assay
Human 11β-HSD type 1 activity is measured by assaying NADPH production by fluorescence assay. Solid compounds are dissolved in DMSO to a concentration of 10 mM. Twenty microliters of each are then transferred to a column of a 96-well polypropylene Nunc plate where they are further diluted 50-fold followed by subsequent two-fold titration, ten times across the plate with additional DMSO using a Tecan Genesis 200 automated system. Plates are then transferred to a Tecan Freedom 200 system with an attached Tecan Temo 96-well head and an Ultra 384 plate reader. Reagents are supplied in 96-well polypropylene Nunc plates and are dispensed individually into black 96-well Molecular Devices High Efficiency assay plates (40 μL/well capacity) in the following fashion: 9 μL/well of substrate (2.22 mM NADP, 55.5 μM Cortisol, 10 mM Tris, 0.25% Prionex, 0.1% Triton X100), 3 μL/well of water to compound wells or 3 μL to control and standard wells, 6 μL/well recombinant human 11β-HSD type 1 enzyme, 2 μL/well of compound dilutions. […] Plates are then shaken once more for 15 seconds then placed into an Ultra 384 microplate reader (355EX/460EM) for detection of NADPH fluorescence. […]

T1 sequence (P28845 whole entry): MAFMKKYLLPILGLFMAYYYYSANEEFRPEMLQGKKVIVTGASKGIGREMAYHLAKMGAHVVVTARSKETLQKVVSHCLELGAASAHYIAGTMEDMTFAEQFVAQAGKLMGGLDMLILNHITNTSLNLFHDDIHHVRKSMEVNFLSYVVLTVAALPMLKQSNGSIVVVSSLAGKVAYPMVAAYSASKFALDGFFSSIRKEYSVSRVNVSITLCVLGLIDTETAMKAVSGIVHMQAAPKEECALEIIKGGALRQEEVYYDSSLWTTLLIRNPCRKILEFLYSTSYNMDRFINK

| Structure (SMILES) | inhibition at 10 mg/kg (cortisone conversion) | IC50 (11-β-HSD1) | fold greater inhibition of 11-βHSD1 enzyme as compared to the inhibition of 11-βHSD2 (11-βHSD2 enzyme) |
| --- | --- | --- | --- |
| O=C(c1ccc(-c2cc(Cl)c(C[C@@H]3CCN(N4CCOCC4)C3=O)c(Cl)c2)cc1)N1CCC(C(F)(F)F)CC1 [Example 3, (R)-3-[3,5-Dichloro-4′-(4-trifluoromethyl-piperidine-1-carbonyl)-biphenyl-4-ylmethyl]-1-morpholin-4-yl-pyrrolidin-2-one] | 82% | 0.067 µM | – |
| O=C1[C@H](Cc2c(Cl)cc(-c3ccc(F)cc3)cc2Cl)CCN1N1CCC(O)CC1 [Example 6, (R)-3-(3,5-Dichloro-4′-fluoro-biphenyl-4-ylmethyl)-1-(4-hydroxy-piperidin-1-yl)-pyrrolidin-2-one Trifluoro Acetate] | 55% | 0.0057 µM | – |
| O=C(c1ccc(-c2cc(Cl)c(C[C@@H]3CCN(N4CCC(O)CC4)C3=O)c(Cl)c2)cc1)N1CCC(C(F)(F)F)CC1 [Example 7, (R)-3-[3,5-Dichloro-4′-(4-trifluoromethyl-piperidine-1-carbonyl)-biphenyl-4-ylmethyl]-1-(4-hydroxy-piperidin-1-yl)-pyrrolidin-2-one] | 98% | 0.0143 µM | 145 fold |
| O=C(c1ccc(-c2cc(Cl)c(C[C@@H]3CCN(N4CCC(O)CC4)C3=O)c(Cl)c2)cc1)N1CCC(F)(F)CC1 [Example 8, (R)-3-[3,5-Dichloro-4′-(4,4-difluoro-piperidine-1-carbonyl)-biphenyl-4-ylmethyl]-1-(4-hydroxy-piperidin-1-yl)-pyrrolidin-2-one] | 94% | 0.043 µM | – |
